Here are results for eight compounds from patent publication US5283361A, “N-hydroxy-N-[3-[2-(halophenylthio)phenyl]prop-2-enyl]ureas as lipoxygenase inhibitors” (Eli Lilly and Company, priority 1992, dated 1994).

Experiment [1] deals with 5-LO. The experiment in a line: In vitro antigen (ovalbumin)-induced contraction of sensitized guinea pig tracheal strips, Schultz-Dale reaction (Inhibition of 5-LO). Format: cell-based. The following applies: Cavia porcellus, antigen (OA) 30 ng/ml, 30 min preincubation, with indomethacin 5 μM and pyrilamine 10 μM. The protocol: Male, Hartley strain guinea-pigs (200-250 g) were actively sensitized by three injections of ovalbumin (OA, 10 mg/kg). The OA was administered intraperitoneally on Days 1 and 3 and subcutaneously on Day 5. In vitro experiments were performed 21-25 days later.
On the day of the experiment, guinea pigs were killed by asphyxiation with CO2 and the tracheas removed, cleaned of surrounding connective tissue and cut into spiral strips. Each strip was divided in half for paired experiments. Tissues were placed in 10 ml jacketed tissue baths maintained at 37° C. and attached with cotton thread to Grass force-displacement transducers (FT03C). […] Tracheal strips were bathed in modified Krebs' solution of the following composition (millimolar) NaCl, 118.2;KCl, 4.6; CaCl2.2H2 O, 2.5; MgSO4.7H2 O, 1.2; NaHCO3,24.8; KH2 PO4, 1.0; and dextrose, 10.0. The buffer contained indomethacin (5 μM) which potentiated the contractions of the cysteinyl leukotriene (LT) by removing the influence of cyclooxygenase products. The tissue baths were aerated with 95% O2 :5% CO2. Tracheal strips were placed under a resting tension of 2 g, and the tissues were allowed a minimal stabilization period of 60 minutes before undergoing experimentation. Bath fluid was changed at 15 minute intervals during the stabilization period.
Cumulative concentration-response curves were obtained from tracheal strips by increasing the agonist concentration in the organ bath by half-log increments while the previous concentration remained in contact with the tissues (van Rossum, Arch. Int. Pharmacodyn. Ther., 143, 299-330 (1963)). Agonist concentration was increased after reaching the plateau of the contraction elicited by the preceeding concentration. One concentration-response curve was obtained from each tissue. To minimize variability between tissues, contractile responses were expressed as a percentage of the maximal response obtained with carbachol (10 μM), added to the bath at the end of the concentration-response curve. Initially, tissues were challenged with carbachol (10 μM) following the 60 minute stabilization period to insure tissue viability. After recording the maximal response to the initial carbachol challenge, the tissues were washed and reequilibrated for 60 minutes before starting the experimental protocol.
To evaluate the effects of novel 5-lipoxygenase inhibitors in the Schultz-Dale reaction, each compound was incubated with the tissues 30 minutes before starting the curves. Vehicle (DMSO) was given to the paired control tissue. Pyrilamine (10 μM) was added to all baths at this time to block the actions of released histamine. Responses obtained at the antigen concentration of 30 ng/ml were recorded in the absence and presence of drug and percent inhibition was calculated for each pair of tissues. IC50 valves were determined by linear regression.

For experiment [2], the system named is 5-LO. The experiment in a line: In vivo ovalbumin-induced increase in intratracheal pressure in passively sensitized guinea pigs (Inhibition of 5-LO). The arrangement: species or system guinea pig. The following applies: OA-induced increase in tracheal pressure; for Inhibition of 5-LO In Vivo Percent Inhibition (dose of 10 mg/kg): dose of 10 mg/kg (footnote a), po, 2 hr. The protocol:
Male Hartley guinea pigs (350-500 g) were passively sensitized against ovalbumin by i.p. administration of 0.3 ml of antiserum 2 days preceeding the experiment. Hyperimmune serum was prepared from actively sensitizing male guinea pigs conditioned with 2 mg of ovalbumin in 50% Complete Freund's Adjuvant i.p. on days 1 and 5. On day 21, the animals were bled and the serum collected and stored at -20° C. On the day of the experiment the passively sensitized guinea pigs were anesthetized with 35 to 40 mg/kg of pentobarbital sodium given i.p. The right jugular vein was cannulated with Tygon microbore tubing (o.d.=03) connected to a syringe for administration of selected drugs. Blood pressure was measured with a Statham pressure transducer connected to a Tygon catheter placed in the left carotid artery. The trachea was cannulated and each animal was ventilated with room air by means of a Harvard rodent respirator set to deliver a tidal volume of 1 ml/100 g body weight with a rate of 60 breaths/minute. Succinylcholine (5 mg/kg) was given i.v. to suppress spontaneous respiration. Intratracheal pressure, an index of total pulmonary resistance, was measured with a Statham pressure transducer connected to a T-tube on the tracheal cannula. […] Body temperature was maintained within normal limits by means of a Deltaphase isothermal pad. Prior to surgery, test compound or vehicle (PEG 400) was administered to each guinea pig by oral gavage and OA challenge was at designated times following oral dosing. The animals were pretreated i.v. with pyrilamine (5 mg/kg), propranolol (1 mg/kg) and indomethacin (10 mg/kg) 5 minutes prior to the OA challenge. OA-induced increase in tracheal pressure was expressed as a percentage of the maximal pressure obtained by clamping the trachea with a hemistat. To determine the effect of each drug, a % inhibition value was calculated from the vehicle and drug treated animals at each concentration tested.

As to `NC(=O)N(O)C/C=C/c1ccc(F)cc1Sc1ccc(F)cc1` [Example 3, N-hydroxy-N-[3-[2-(4-fluorophenylthio)-4-fluorophenyl]prop-2-enyl]urea], the IC50 in the experiment with 5-LO [1] is 190 nM. For the same compound, in the experiment on 5-LO [2], the “Inhibition of 5-LO In Vivo Percent Inhibition (dose of 10 mg/kg)” value was found to be 43%.
For `NC(=O)N(O)C/C=C/c1ccccc1Sc1ccc(Cl)cc1` [Example 5, N-hydroxy-N-[3-[2-(4-chlorophenylthio)phenyl]prop-2-enyl]urea], the IC50 in the experiment with 5-LO [1] amounted to 140 nM. For the same compound, the “Inhibition of 5-LO In Vivo Percent Inhibition at 30 mg/kg, po, 2 hr.” value in the experiment with 5-LO [2] is on record as 95%.
For `NC(=O)N(O)C/C=C/c1ccccc1Sc1ccc(F)cc1` [Example 2, N-hydroxy-N-[3-[2-(4-fluorphenylthio)phenyl]prop-2-enyl]urea] the same measures were 100 nM and 96%.
For `NC(=O)N(O)C/C=C/c1cc(F)ccc1Sc1ccc(F)cc1` [Example 4, N-hydroxy-N-[3-[2-(4-fluorophenylthio)-5-fluorophenyl]prop-2-enyl]urea] the same measures were 230 nM and 52%.
For `NC(=O)N(O)C/C=C/c1cccc(F)c1Sc1ccc(F)cc1` [Example 6, N-hydroxy-N-[3-[2-(4-fluorophenylthio)-3-fluorophenyl]prop-2-enyl]urea] the same measures were 130 nM and 81%.
Regarding `NC(=O)N(O)C/C=C/c1cccc(F)c1Sc1ccc(Cl)cc1` [Example 7, N-hydroxy-N-[3-[2-(4-chlorophenylthio)-3-fluorophenyl]prop-2-enyl]urea], the IC50 in the experiment on 5-LO [1] came out at 90 nM. The “Inhibition of 5-LO In Vivo Percent Inhibition (dose of 10 mg/kg)” value in the experiment with 5-LO [2] is 77%.
On to `NC(=O)N(O)C/C=C/c1c(F)cccc1Sc1ccc(F)cc1` [Example 1, N-hydroxy-N-[3-[2-(4-fluorophenylthio)-6-fluorophenyl]-prop-2-enyl]urea], for which the IC50 with 5-LO [1] worked out at 50 nM. For the same compound, the “Inhibition of 5-LO In Vivo Percent Inhibition at 30 mg/kg, po, 2 hr.” value in the experiment with 5-LO [2] is 97%.
On the same counts, the results for `NC(=O)N(O)C/C=C/c1c(F)cccc1Sc1ccc(Cl)cc1` [Example 8] are 130 nM and 46%.
